Where “and” joins values, the source holds several entries; their conditions need not be identical. Equal entries are not always repeated. Where two headings read alike, the source gives them in different places.
Tests used:
[1] = target: T1, N-type Ca^2+ channel (Cav2.2) (Rattus norvegicus, UniProt Q02294); assay: N-type Ca2+ channel agonist activity, whole-cell perforated patch clamp of tail currents in tsA201 cells; format: cell-based
T1 construct: expressed in transfected cells; later also transient transfection
Description: (§1) tsA201 cells expressing calcium channels. […] For subsequent evaluation of effects on N-, P/Q-, or L-type channels, tsA-201 cells were transiently transfected with Cav2.2, Cav2.1, or Cav1.3, in combination with Cavβ3 and […] (Addgene, Cambridge Mass.) using FuGENE 6 (Life Technologies, Grand Island, N.Y.). All cells were maintained in DMEM supplemented with 10% fetal bovine serum. For the stable cell line expressing N-type channels, 25 μg/mL zeocin, 5 μg/mL blasticidin, and 25 μg/mL hygromycin were added as selection agents.
(§2) Whole-cell patch clamp recordings of calcium current. […] Briefly, the pipette solution consisted of […] Cs2SO4, 60 mM CsCl, 1 mM MgCl2, 10 mM 4-(2-hydroxyethyl)-1-piperazineethanesulfonic acid (HEPES) at pH 7.4. […] Patch pipettes were fabricated from borosilicate glass and pulled to a resistance of about 1 MΩ. Before each experiment, a stock solution consisting of 3 mg amphotericin-B dissolved into 50 μL anhydrous DMSO was made. […] Capacitive currents and passive membrane responses to voltage commands were subtracted from the data. Currents were amplified by an Axopatch 200B amplifier, filtered at 5 KHz, and digitized at 10 KHz for subsequent analysis using pClamp software (Axon Instruments/Molecular Devices; Sunnyvale, Calif.). […] To measure effects on calcium channel tail currents, the tail current integral was measured before and after application of a derivative, with the integral of each trace being normalized to its peak. All experiments were carried out at room temperature (22° C.). […] All other salts and chemicals were obtained from Sigma-Aldrich chemical company (St. Louis, Mo.).
(§3) Statistical Analysis. Statistical analysis was performed using either GraphPad Prism 5 (GraphPad Software, Inc.) or Origin 7 (OriginLab) software. For the dose-response analyses on Ca^2+ current, each concentration of the four different compounds was tested in 3-6 cells. […] All EC50 and IC50 values and their respective errors were determined by performing 100 iterations of a logistic function curve fit. Data are presented as mean±s.e.m. unless otherwise noted.

[2] = target: T2, P/Q-type channels (Cav 2.1) (Rattus norvegicus, UniProt P54282); assay: P/Q-type Ca2+ channel agonist activity, whole-cell perforated patch clamp in tsA-201 cells; format: cell-based
T2 construct: host or cells: tsA-201
Description: as §1, §2
Capacitive currents and passive membrane responses to voltage commands were subtracted from the data. […] All experiments were carried out at room temperature (22° C.).

[3] = target: T3, L-type (Cav 1.3) channels (Rattus norvegicus, UniProt P27732); assay: L-type Ca2+ channel agonist activity, whole-cell perforated patch clamp in tsA-201 cells; format: cell-based
T3 construct: host or cells: tsA-201
Description: For subsequent evaluation of effects on N-, P/Q-, or L-type channels, tsA-201 cells were transiently transfected with Cav2.2, Cav2.1, or Cav1.3, in combination with Cavβ3 and Cavα2β1 (Addgene, Cambridge Mass.) using FuGENE 6 (Life Technologies, Grand Island, N.Y.). All cells were maintained in DMEM supplemented with 10% fetal bovine serum.
Whole-cell patch clamp recordings of calcium current. […] Briefly, the pipette solution consisted of 70 nM Cs2SO4, 60 mM CsCl, 1 mM MgCl2, 10 mM 4-(2-hydroxyethyl)-1-piperazineethanesulfonic acid (HEPES) at pH 7.4. […] Patch pipettes were fabricated from borosilicate glass and pulled to a resistance of about 1 MΩ. Before each experiment, a stock solution consisting of 3 mg amphotericin-B dissolved into 50 μL anhydrous DMSO was made. […] Capacitive currents and passive membrane responses to voltage commands were subtracted from the data. Currents were amplified by an Axopatch 200B amplifier, filtered at 5 KHz, and digitized at 10 KHz for subsequent analysis using pClamp software (Axon Instruments/Molecular Devices; Sunnyvale, Calif.). […] To measure effects on calcium channel tail currents, the tail current integral was measured before and after application of a derivative, with the integral of each trace being normalized to its peak. All experiments were carried out at room temperature (22° C.). […]

cdk2 cyclinA(h) = target: T4, cdk2 cyclinA(h) (Homo sapiens, UniProt P24941); assay: Kinase inhibitory activity (EMD Millipore KinaseProfiler), cdk2; format: biochemical
T4 construct: purchased EMD Millipore KinaseProfiler service (Millipore UK Ltd.)
Description: (§4) Kinase inhibitory activity. Kinase inhibitory activities were determined using the EMD Millipore KinaseProfiler™ service (Millipore UK Ltd.). Each compound's kinase inhibitory activity was tested at three different concentrations (0.2 μM, 2 μM, and 20 μM) against five different kinases: Cdk1 cyclinB(h), cdk2 cyclinA(h), cdk5 p35(h), mitogen-activated protein kinase (MAPK1(h)) and myosin light-chain kinase (MLCK(h)).
(§5) Statistical Analysis. […] For the dose-response analyses on Ca^2+ current, each concentration of the four different compounds was tested in 3-6 cells. […] All EC50 and IC50 values and their respective errors were determined by performing 100 iterations of a logistic function curve fit.

Cdk1 cyclinB(h) = target: T5, Cdk1 cyclinB(h) (Homo sapiens, UniProt P06493); assay: Kinase inhibitory activity (EMD Millipore KinaseProfiler), cdk1; format: biochemical; details: 20 μM highest concentration used; read-out: Cdk1 EC50/IC50 affinities
T5 construct: purchased EMD Millipore KinaseProfiler service (Millipore UK Ltd.)
Description: as §4, §3

cdk5 p35(h) = target: T6, cdk5 p35(h) (Homo sapiens, UniProt Q00535); assay: Kinase inhibitory activity (EMD Millipore KinaseProfiler), cdk5; format: biochemical; details: 20 μM highest concentration used; read-out: Cdk5 EC50/IC50 affinities
T6 construct: purchased EMD Millipore KinaseProfiler service (Millipore UK Ltd.)
Description: as §4, §3

[4] = target: T7, mitogen-activated protein kinase (MAPK1(h)) (Homo sapiens, UniProt P27361); assay: Kinase inhibitory activity (EMD Millipore KinaseProfiler), MAPK1; format: biochemical; details: 20 μM highest concentration used; read-out: MAPK EC50/IC50 affinities
T7 construct: purchased EMD Millipore KinaseProfiler service (Millipore UK Ltd.)
Description: as §4, §5

[5] = target: T8, myosin light-chain kinase (MLCK(h)) (Homo sapiens, UniProt Q9H1R3); assay: Kinase inhibitory activity (EMD Millipore KinaseProfiler), MLCK; format: biochemical; details: 20 μM highest concentration used; read-out: MLCK EC50/IC50 affinities
T8 construct: purchased EMD Millipore KinaseProfiler service (Millipore UK Ltd.)
Description: as §4, §5

[6] = system: LEMS passive transfer mouse NMJs; assay: Intracellular recordings at LEMS passive transfer mouse NMJs, ex vivo ETA nerve-muscle preparation (Example 3)
Description: LEMS passive transfer. To test GV-58 in a LEMS model NMJ, an established LEMS passive transfer mouse model was utilized. To perform the passive transfer of LEMS, mice were injected with the serum of patients diagnosed with LEMS. […] Each serum sample was tested for the presence of voltage-gated Ca^2+ channel antibodies using a Ca^2+ channel antibody radioimmune assay (Kronus RIA kit, Star, Id.). Control serum was obtained from the University of Pittsburgh Medical Center blood bank. […]; 25-32 g; Charles River Laboratories) were divided into two groups: one group that received LEMS serum, and a control group that received control serum.
Intracellular recordings at mouse NMJs. […] A thin upper arm muscle, the epitrochleoanconeus (ETA), was chosen for these recordings. […] […]. A train of 10 EPPs was also collected in each muscle fiber using an inter-stimulus interval of 20 msec. To analyze the data, both the amplitudes and the areas under the waveforms (integral) were determined after correcting each digitized point in each trace for non-linear summation. Data were collected and analyzed using an Axoclamp 900A and the pClamp 10 suite of programs (Molecular Devices, Sunnyvale, Calif.).
Statistical Analysis. […] For the dose-response analyses on Ca^2+ current, each concentration of the four different compounds was tested in 3-6 cells. […]. All EC50 and IC50 values and their respective errors were determined by performing 100 iterations of a logistic function curve fit.

T2 sequence (P54282 whole entry): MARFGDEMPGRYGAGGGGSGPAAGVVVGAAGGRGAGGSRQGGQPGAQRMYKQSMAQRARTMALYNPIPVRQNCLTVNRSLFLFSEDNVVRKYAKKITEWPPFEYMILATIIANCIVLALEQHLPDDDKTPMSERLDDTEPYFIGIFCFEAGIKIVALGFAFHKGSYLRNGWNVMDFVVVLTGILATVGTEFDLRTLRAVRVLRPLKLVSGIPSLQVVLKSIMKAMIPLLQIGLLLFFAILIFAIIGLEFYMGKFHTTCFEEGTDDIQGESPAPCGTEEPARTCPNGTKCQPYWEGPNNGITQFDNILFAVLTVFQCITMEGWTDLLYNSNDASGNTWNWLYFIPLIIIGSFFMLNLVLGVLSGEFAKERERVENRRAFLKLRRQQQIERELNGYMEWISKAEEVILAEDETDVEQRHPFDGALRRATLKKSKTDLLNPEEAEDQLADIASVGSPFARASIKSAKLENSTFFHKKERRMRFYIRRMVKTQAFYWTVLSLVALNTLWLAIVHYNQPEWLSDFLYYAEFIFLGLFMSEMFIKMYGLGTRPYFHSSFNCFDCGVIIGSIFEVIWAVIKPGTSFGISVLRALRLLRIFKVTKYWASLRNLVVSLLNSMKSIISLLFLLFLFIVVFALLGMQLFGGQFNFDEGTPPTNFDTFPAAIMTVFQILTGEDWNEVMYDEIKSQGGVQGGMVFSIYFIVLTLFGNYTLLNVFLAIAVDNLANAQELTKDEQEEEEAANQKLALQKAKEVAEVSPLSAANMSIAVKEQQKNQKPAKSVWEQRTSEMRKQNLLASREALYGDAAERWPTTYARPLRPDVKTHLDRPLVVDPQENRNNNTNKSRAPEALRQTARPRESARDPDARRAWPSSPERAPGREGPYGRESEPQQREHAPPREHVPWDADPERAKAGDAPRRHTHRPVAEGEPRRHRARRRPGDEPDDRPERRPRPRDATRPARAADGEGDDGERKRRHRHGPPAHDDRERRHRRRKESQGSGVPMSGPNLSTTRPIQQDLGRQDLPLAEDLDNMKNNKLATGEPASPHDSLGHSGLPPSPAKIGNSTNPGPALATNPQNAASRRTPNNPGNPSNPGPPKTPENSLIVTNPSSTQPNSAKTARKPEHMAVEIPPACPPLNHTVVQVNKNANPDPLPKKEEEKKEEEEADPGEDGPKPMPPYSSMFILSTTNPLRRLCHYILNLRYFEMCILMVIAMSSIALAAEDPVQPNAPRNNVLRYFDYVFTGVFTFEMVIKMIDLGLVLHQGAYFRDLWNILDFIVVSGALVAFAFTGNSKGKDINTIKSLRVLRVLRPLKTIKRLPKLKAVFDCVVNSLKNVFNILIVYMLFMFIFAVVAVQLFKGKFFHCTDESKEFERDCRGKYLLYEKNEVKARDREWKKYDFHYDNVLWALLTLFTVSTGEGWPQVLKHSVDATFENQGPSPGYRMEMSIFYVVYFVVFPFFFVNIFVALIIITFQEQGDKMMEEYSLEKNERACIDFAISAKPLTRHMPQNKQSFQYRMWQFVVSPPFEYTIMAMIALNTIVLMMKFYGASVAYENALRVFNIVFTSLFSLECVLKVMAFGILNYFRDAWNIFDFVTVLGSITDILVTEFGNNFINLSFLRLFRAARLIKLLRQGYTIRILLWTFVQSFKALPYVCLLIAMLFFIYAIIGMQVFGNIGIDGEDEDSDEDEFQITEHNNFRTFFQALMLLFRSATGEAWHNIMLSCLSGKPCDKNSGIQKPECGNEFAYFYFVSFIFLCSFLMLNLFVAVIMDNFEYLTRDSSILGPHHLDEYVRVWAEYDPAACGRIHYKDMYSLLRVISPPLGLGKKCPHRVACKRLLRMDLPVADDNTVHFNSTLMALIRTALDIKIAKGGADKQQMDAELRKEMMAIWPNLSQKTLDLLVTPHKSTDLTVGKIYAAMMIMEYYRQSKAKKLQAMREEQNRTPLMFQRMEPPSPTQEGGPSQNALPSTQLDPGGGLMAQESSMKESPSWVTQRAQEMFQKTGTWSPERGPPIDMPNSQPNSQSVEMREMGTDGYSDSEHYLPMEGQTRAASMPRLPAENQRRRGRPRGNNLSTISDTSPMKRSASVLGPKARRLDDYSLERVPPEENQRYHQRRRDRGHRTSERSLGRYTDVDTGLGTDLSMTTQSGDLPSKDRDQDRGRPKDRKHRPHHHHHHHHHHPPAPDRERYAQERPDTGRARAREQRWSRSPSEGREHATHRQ
T1 sequence (Q02294 whole entry): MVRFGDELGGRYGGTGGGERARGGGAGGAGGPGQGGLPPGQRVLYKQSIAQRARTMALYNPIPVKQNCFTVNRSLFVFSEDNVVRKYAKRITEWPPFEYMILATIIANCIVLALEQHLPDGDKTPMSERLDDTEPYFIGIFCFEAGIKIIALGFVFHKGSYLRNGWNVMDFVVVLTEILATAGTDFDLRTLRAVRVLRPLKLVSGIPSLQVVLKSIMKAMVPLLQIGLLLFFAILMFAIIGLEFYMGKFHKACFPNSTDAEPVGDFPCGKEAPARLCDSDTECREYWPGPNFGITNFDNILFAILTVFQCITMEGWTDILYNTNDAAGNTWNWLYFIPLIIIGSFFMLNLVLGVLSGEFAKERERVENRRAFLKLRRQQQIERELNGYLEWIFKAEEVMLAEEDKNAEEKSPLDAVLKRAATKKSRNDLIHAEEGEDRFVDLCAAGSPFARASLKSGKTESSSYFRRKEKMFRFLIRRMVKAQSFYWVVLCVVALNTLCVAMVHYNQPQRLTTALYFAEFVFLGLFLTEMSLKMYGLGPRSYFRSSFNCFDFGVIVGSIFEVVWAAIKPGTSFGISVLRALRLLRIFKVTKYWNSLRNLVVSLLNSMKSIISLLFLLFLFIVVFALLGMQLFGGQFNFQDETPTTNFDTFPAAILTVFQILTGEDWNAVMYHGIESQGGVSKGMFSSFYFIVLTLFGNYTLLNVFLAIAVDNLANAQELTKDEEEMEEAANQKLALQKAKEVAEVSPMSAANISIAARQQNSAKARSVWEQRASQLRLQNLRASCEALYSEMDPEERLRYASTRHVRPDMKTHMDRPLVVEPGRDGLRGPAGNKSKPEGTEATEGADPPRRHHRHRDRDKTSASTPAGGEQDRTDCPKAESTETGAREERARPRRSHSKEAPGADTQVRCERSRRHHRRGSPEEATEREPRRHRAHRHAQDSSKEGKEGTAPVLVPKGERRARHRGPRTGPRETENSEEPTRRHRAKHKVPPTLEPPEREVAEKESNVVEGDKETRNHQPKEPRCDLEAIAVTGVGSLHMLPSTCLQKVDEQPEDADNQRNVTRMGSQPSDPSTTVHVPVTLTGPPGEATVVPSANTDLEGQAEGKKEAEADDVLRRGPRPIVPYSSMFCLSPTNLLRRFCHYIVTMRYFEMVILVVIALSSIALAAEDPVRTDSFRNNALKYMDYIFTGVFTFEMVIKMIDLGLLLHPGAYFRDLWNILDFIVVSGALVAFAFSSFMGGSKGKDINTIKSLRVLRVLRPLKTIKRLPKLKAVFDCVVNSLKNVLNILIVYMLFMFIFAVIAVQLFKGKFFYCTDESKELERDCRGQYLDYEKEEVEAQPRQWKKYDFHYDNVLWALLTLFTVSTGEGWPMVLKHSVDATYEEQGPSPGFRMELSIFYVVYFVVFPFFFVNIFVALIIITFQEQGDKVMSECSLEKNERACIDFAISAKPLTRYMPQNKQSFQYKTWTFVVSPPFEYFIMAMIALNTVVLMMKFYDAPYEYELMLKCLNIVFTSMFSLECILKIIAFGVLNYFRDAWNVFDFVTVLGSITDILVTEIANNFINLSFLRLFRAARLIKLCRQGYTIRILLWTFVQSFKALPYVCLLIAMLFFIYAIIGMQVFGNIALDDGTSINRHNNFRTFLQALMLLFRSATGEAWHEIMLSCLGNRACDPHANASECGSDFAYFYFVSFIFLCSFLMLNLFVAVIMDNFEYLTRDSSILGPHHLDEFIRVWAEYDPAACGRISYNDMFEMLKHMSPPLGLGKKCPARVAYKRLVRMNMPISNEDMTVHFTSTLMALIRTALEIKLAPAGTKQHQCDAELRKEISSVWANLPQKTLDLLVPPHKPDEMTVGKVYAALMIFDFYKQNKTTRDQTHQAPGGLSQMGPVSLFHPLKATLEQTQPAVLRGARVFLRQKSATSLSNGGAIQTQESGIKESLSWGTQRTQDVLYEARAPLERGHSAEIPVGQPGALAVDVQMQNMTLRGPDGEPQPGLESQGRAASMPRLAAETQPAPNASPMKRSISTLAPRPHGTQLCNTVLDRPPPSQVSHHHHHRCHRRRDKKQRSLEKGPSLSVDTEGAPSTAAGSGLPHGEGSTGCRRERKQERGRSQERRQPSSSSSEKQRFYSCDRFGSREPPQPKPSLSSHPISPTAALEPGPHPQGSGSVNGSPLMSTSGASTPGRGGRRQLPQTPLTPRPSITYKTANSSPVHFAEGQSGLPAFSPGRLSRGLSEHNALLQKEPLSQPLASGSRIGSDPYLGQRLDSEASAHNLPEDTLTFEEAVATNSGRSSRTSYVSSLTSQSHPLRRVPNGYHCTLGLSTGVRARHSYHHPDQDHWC
T7 sequence (P27361 whole entry): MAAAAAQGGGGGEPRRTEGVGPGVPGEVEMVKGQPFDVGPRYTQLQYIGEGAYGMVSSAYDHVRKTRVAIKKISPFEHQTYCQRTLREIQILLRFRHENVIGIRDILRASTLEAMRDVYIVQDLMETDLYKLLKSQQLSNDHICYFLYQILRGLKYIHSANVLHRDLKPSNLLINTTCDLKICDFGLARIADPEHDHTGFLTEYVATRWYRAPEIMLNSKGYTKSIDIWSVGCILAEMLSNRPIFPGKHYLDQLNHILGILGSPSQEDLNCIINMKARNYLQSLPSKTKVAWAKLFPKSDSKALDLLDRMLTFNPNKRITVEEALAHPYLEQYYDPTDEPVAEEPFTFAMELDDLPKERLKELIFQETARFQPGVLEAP

`CCCn1cnc2c(NCc3ccc(C)s3)nc(N[C@H](CC)CO)nc21` [Compound 13x, (2R)-2-[(6-{[(5-Methylthiophen-2-yl)methyl]amino}-9-propyl-9H-purin-2-yl)amino]butan-1-ol] was tested, and the “higher affinity for the calcium channel than (R)-roscovitine” value ([1]; FIG. 4C dose response curve) was 6 fold, the “increase in efficacy as an agonist for N- and P/Q-type Ca^2+ channels vs (R)-roscovitine” value ([1]; N- and P/Q-type) was ~4 fold and the “increase in potency as an agonist for N- and P/Q-type Ca^2+ channels vs (R)-roscovitine” value ([1]; N- and P/Q-type) was 3-4 fold. For the same compound, the “agonist effect on the Ca^2+ channel tail currents (in words)” value ([1]; N-type) was “strong agonist effect”, the “maximal fold increase in the tail current integral relative to control” value ([1]; N-type channels) was ~32 fold and the EC50 ([1]; Table 3, calcium channel agonist, read-out: N-type EC50/IC50 affinities) was 7.21 ± 0.86 µM. The EC50 ([1]; read-out: 95% confidence interval for the fit (EC50) to N-type channels) was 4.6 to 9.8 µM, the EC50 ([1]; whole cell perforated patch clamp, deactivation (tail) currents from N-type channels, read-out: N-Type Ca^2+ Channel Activity EC50 +/− SEM) was 7.2 µM and 7.21 µM and the “increase of the tail current integral compared to control” value ([2]; P/Q-type channels) was ~33 fold. The EC50 ([2]; b265, read-out: agonist effects on P/Q-type calcium channels EC50) was 9.9 µM, the EC50 ([2]; calcium channel agonist, Cav 2.1, read-out: P/Q-type EC50/IC50 affinities) was 8.8 µM and 8.81 µM and the EC50 ([2]; read-out: 95% confidence interval for a fit (EC50) to P/Q channels data) was 6.7 to 14.5 µM. For the same compound, the EC50 ([3]; Cav 1.3, no measureable agonist effect up to 100 μM, read-out: L-type EC50/IC50 affinities) was > 100 µM, the EC50 ([3]; b265, read-out: agonist effects on L-type calcium channels EC50) was > 100 µM and the IC50 (cdk2 cyclinA(h); 20 μM highest concentration used, read-out: Cdk2 EC50/IC50 affinities) was 3.29 ± 0.43 µM. The EC50 (cdk2 cyclinA(h); determined in duplicate at 0.2, 2, and 20 μM, read-out: Cdk2 Activity EC50 +/− SEM) was 3 µM, the IC50 (Cdk1 cyclinB(h)) was 20.6 ± 0.96 µM and the IC50 (cdk5 p35(h)) was 3.03 ± 0.32 µM. For the same compound, the IC50 [4] was > 20 µM, the IC50 [5] was > 20 µM and the “increase of the strength of neuromuscular transmission” value [6] was “about 50%”. For the same compound, the “EPP 90% to 10% decay time” value ([6]; 50 μM) was 6.79 ± 0.11 ms, the “EPP full width at half maximum (FWHM)” value ([6]; 50 μM) was 3.90 ± 0.07 ms and the “final EPP in 50 Hz train of 10 stimuli, normalized to the first EPP” value ([6]; 50 μM) was “about 94%”. The mEPP frequency ([6]; 50 μM) was 10.45 ± 0.64 s⁻¹, the “increase of quantal content when measuring area” value ([6]; 50 μM vs vehicle) was ~92% and the “increase of quantal content when measuring peak” value ([6]; 50 μM vs vehicle) was ~62%. For the same compound, the “mean change in mEPP amplitude” value ([6]; 50 μM, relative to vehicle) was 1.00±0.02 and the EPP amplitude ([6]; aBC2 serum NMJs, 30-minute incubation in 50 μM) was 19.44±0.98 mV.
